From US9586961B2, “Homopiperazine derivatives as protein tyrosine kinase inhibitors and pharmaceutical use thereof” (LEO PHARMA A/S, priority 2010, dated 2017)

Legend:
Format in all cases: biochemical
JAK1 = target: T1, JAK1 (Homo sapiens, UniProt P23458); experiment: JAK1 kinase assay (HTRF, inhibition of phosphorylation of a synthetic peptide); details: catalytic domain aa 850-1154, GST-tag; 7 μM ATP (Km); read-out: JAK1 kinase inhibitory activity (EC50)
T1 construct: JAK1 (aa 850-1154) and TYK2 (aa 871-1187) are expressed with an N-terminally fused GST-tag; GST (N); purchased Carna Biosciences, Inc; host or cells: baculovirus expression system
How it was run: (§1)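 Baculovirus-expressed catalytic domains (GST-JAK1 aa 850-1154, GST-TYK2 aa 871-1187, His-JAK2, His-JAK3) phosphorylate 1 μM biotin-TK peptide 20-30 min at RT in 50 mM Hepes pH 7.0 with ATP at Km: JAK1 7 μM, JAK2 4 μM, JAK3 2 μM, TYK2 13 μM; 0.75% DMSO. Stopped with EDTA, HTRF read overnight.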

JAK2 = target: T2, JAK2 (Homo sapiens, UniProt O60674); experiment: JAK2 kinase assay (HTRF, inhibition of phosphorylation of a synthetic peptide); details: catalytic domain, His-tag; 4 μM ATP (Km); read-out: JAK2 kinase inhibitory activity (EC50)
T2 construct: All four purified enzymes contain only the catalytic domain; His (N); purchased Carna Biosciences, Inc; host or cells: baculovirus expression system
How it was run: as §1

JAK3 = target: T3, JAK3 (Homo sapiens, UniProt P52333); experiment: JAK3 kinase assay (HTRF, inhibition of phosphorylation of a synthetic peptide); details: catalytic domain, His-tag; 2 μM ATP (Km); read-out: JAK3 kinase inhibitory activity (EC50)
T3 construct: All four purified enzymes contain only the catalytic domain; His (N); purchased Carna Biosciences, Inc; host or cells: baculovirus expression system
How it was run: as §1

T1 sequence (P23458 850-1154): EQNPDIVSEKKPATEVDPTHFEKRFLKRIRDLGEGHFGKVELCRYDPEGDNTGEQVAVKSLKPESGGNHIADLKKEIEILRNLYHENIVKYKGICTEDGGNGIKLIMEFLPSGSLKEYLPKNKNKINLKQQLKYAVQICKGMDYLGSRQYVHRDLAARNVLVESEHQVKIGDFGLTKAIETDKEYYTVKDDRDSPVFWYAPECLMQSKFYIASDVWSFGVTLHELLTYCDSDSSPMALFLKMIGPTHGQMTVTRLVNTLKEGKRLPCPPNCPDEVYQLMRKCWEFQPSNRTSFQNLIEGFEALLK
T3 sequence (P52333 822-1111 limits assumed): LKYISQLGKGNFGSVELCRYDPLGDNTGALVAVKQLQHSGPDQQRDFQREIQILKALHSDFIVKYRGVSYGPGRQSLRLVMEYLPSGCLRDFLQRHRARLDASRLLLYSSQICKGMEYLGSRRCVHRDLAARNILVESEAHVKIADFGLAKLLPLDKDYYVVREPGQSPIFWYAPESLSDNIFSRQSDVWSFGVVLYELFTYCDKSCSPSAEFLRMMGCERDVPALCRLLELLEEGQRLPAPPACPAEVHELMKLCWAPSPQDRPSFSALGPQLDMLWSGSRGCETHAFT
T2 sequence (O60674 849-1124 limits assumed): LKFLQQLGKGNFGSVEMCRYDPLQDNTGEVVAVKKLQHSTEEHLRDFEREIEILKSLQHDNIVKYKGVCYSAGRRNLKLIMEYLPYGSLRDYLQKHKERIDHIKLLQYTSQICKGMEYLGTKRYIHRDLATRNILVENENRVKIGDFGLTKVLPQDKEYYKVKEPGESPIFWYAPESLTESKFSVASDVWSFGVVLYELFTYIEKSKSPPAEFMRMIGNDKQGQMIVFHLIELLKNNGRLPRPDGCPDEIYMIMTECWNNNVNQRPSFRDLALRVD

SMILES	EC50 (JAK1)	EC50 (JAK2)	EC50 (JAK3)
Cc1ccncc1C(=O)N1CCN(c2ncnc3[nH]ccc23)CC2(CC2)C1 [Example 150, (4-methyl-3-pyridyl)-[5-(7H-pyrrolo[2,3-d]pyrimidin-4-yl)-5,8-diazaspiro[2.6]nonan-8-yl]methanone]	100 to 1000 nM	> 1000 nM	> 1000 nM
O=C(c1ccno1)N1CCCN(c2ncnc3[nH]ccc23)CC12CC2 [Example 181, isoxazol-5-yl-[5-(7H-pyrrolo[2,3-d]pyrimidin-4-yl)-5,9-diazaspiro[2.6]nonan-9-yl]methanone]	< 100 nM	< 100 nM	100 to 1000 nM
CN1CCN(CC(=O)N2CCN(c3ncnc4[nH]ccc34)CC3(CC3)C2)C1=O [Example 82, 1-methyl-3-[2-oxo-2-[5-(7H-pyrrolo[2,3-d]pyrimidin-4-yl)-5,8-diazaspiro[2.6]nonan-8-yl]ethyl]imidazolidin-2-one]	100 to 1000 nM	100 to 1000 nM	100 to 1000 nM
O=C(c1cc[nH]n1)N1CCCN(c2ncnc3[nH]ccc23)CC12CC2 [Example 183, 1H-pyrazol-3-yl-[5-(7H-pyrrolo[2,3-d]pyrimidin-4-yl)-5,9-diazaspiro[2.6]nonan-9-yl]methanone]	100 to 1000 nM	100 to 1000 nM	100 to 1000 nM
O=C(c1ccno1)N1CCN(c2ncnc3[nH]ccc23)CC2(CC2)C1 [Example 177, isoxazol-5-yl-[5-(7H-pyrrolo[2,3-d]pyrimidin-4-yl)-5,8-diazaspiro[2.6]nonan-8-yl]methanone]	100 to 1000 nM	100 to 1000 nM	100 to 1000 nM
Cc1cc(C(=O)N2CCN(c3ncnc4[nH]ccc34)CC3(CC3)C2)no1 [Example 175, (5-methylisoxazol-3-yl)-[5-(7H-pyrrolo[2,3-d]pyrimidin-4-yl)-5,8-diazaspiro[2.6]nonan-8-yl]methanone]	100 to 1000 nM	100 to 1000 nM	100 to 1000 nM
O=C(c1ccccc1Cl)N1CCN(c2ncnc3[nH]ccc23)CC2(CC2)C1 [Example 185, (2-chlorophenyl)-[5-(7H-pyrrolo[2,3-d]pyrimidin-4-yl)-5,8-diazaspiro[2.6]nonan-8-yl]methanone]	100 to 1000 nM	100 to 1000 nM	> 1000 nM
O=C(c1ccc(F)cc1)N1CCCN(c2ncnc3[nH]ccc23)CC12CC2 [Example 114, (4-fluorophenyl)-[5-(7H-pyrrolo[2,3-d]pyrimidin-4-yl)-5,9-diazaspiro[2.6]nonan-9-yl]methanone]	100 to 1000 nM	< 100 nM	100 to 1000 nM
Cc1oncc1C(=O)N1CCN(c2ncnc3[nH]ccc23)CC2(CC2)C1 [Example 108, (5-methylisoxazol-4-yl)-[5-(7H-pyrrolo[2,3-d]pyrimidin-4-yl)-5,8-diazaspiro[2.6]nonan-8-yl]methanone]	100 to 1000 nM	100 to 1000 nM	100 to 1000 nM
Cc1nnc(C(=O)N2CCCN(c3ncnc4[nH]ccc34)CC23CC3)o1 [Example 154, (5-methyl-1,3,4-oxadiazol-2-yl)-[5-(7H-pyrrolo[2,3-d]pyrimidin-4-yl)-5,9-diazaspiro[2.6]nonan-9-yl]methanone]	100 to 1000 nM	< 100 nM	100 to 1000 nM
O=C(c1cccnc1)N1CCCN(c2ncnc3[nH]ccc23)CC12CC2 [Example 128, 3-pyridyl-[5-(7H-pyrrolo[2,3-d]pyrimidin-4-yl)-5,9-diazaspiro[2.6]nonan-9-yl]methanone]	100 to 1000 nM	100 to 1000 nM	> 1000 nM
Cc1noc(C)c1C(=O)N1CCN(c2ncnc3[nH]ccc23)CC2(CC2)C1 [Example 170, (3,5-dimethylisoxazol-4-yl)-[5-(7H-pyrrolo[2,3-d]pyrimidin-4-yl)-5,8-diazaspiro[2.6]nonan-8-yl]methanone]	> 1000 nM	> 1000 nM	> 1000 nM
Cc1ccc(S(=O)(=O)N2CCN(c3ncnc4[nH]ccc34)CC3(CC3)C2)cc1 [Example 96, 4-[8-(p-tolylsulfonyl)-5,8-diazaspiro[2.6]nonan-5-yl]-7H-pyrrolo[2,3-d]pyrimidine]	100 to 1000 nM	100 to 1000 nM	> 1000 nM
O=C(c1c[nH]cn1)N1CCN(c2ncnc3[nH]ccc23)CC2(CC2)C1 [Example 133, 1H-imidazol-4-yl-[5-(7H-pyrrolo[2,3-d]pyrimidin-4-yl)-5,8-diazaspiro[2.6]nonan-8-yl]methanone]	100 to 1000 nM	100 to 1000 nM	100 to 1000 nM
O=C(c1ccncn1)N1CCCN(c2ncnc3[nH]ccc23)CC12CC2 [Example 166, pyrimidin-4-yl-[5-(7H-pyrrolo[2,3-d]pyrimidin-4-yl)-5,9-diazaspiro[2.6]nonan-9-yl]methanone]	< 100 nM	< 100 nM	100 to 1000 nM

Second part, the compound after the results:

EC50 (JAK1)	EC50 (JAK2)	EC50 (JAK3)	SMILES
> 1000 nM	100 to 1000 nM	> 1000 nM	Cc1[nH]ncc1C(=O)N1CCCN(c2ncnc3[nH]ccc23)CC12CC2 [Example 207, (5-methyl-1H-pyrazol-4-yl)-[5-(7H-pyrrolo[2,3-d]pyrimidin-4-yl)-5,9-diazaspiro[2.6]nonan-9-yl]methanone]
100 to 1000 nM	100 to 1000 nM	> 1000 nM	O=C(c1ccnc(O)c1)N1CCN(c2ncnc3[nH]ccc23)CC2(CC2)C1 [Example 190, (2-hydroxy-4-pyridyl)-[5-(7H-pyrrolo[2,3-d]pyrimidin-4-yl)-5,8-diazaspiro[2.6]nonan-8-yl]methanone]
> 1000 nM	100 to 1000 nM	> 1000 nM	O=C(N1CCN(c2ncnc3[nH]ccc23)CC2(CC2)C1)C1(c2ccccc2)CC1 [Example 260, (1-phenylcyclopropyl)-[5-(7H-pyrrolo[2,3-d]pyrimidin-4-yl)-5,8-diazaspiro[2.6]nonan-8-yl]methanone]
100 to 1000 nM	100 to 1000 nM	> 1000 nM	Cc1noc(C)c1CC(=O)N1CCN(c2ncnc3[nH]ccc23)CC2(CC2)C1 [Example 249, 2-(3,5-dimethylisoxazol-4-yl)-1-[5-(7H-pyrrolo[2,3-d]pyrimidin-4-yl)-5,8-diazaspiro[2.6]nonan-8-yl]ethanone]
100 to 1000 nM	100 to 1000 nM	100 to 1000 nM	Cc1oncc1C(=O)N1CCCN(c2ncnc3[nH]ccc23)CC12CC2 [Example 187, (5-methylisoxazol-4-yl)-[5-(7H-pyrrolo[2,3-d]pyrimidin-4-yl)-5,9-diazaspiro[2.6]nonan-9-yl]methanone]
100 to 1000 nM	100 to 1000 nM	> 1000 nM	O=C(c1cccc(Cl)c1)N1CCN(c2ncnc3[nH]ccc23)CC2(CC2)C1 [Example 186, (3-chlorophenyl)-[5-(7H-pyrrolo[2,3-d]pyrimidin-4-yl)-5,8-diazaspiro[2.6]nonan-8-yl]methanone]
> 1000 nM	100 to 1000 nM	> 1000 nM	O=C(c1ccccn1)N1CCN(c2ncnc3[nH]ccc23)CC2(CC2)C1 [Example 188, 2-pyridyl-[5-(7H-pyrrolo[2,3-d]pyrimidin-4-yl)-5,8-diazaspiro[2.6]nonan-8-yl]methanone]
> 1000 nM	> 1000 nM	> 1000 nM	Cc1cnc(C(=O)N2CCN(c3ncnc4[nH]ccc34)CC3(CC3)C2)cn1 [Example 196, (5-methylpyrazin-2-yl)-[5-(7H-pyrrolo[2,3-d]pyrimidin-4-yl)-5,8-diazaspiro[2.6]nonan-8-yl]methanone]
